Assay results taken from patent US20230312587A1, “PTERIDINONE COMPOUNDS AND USES THEREOF” (Vertex Pharmaceutical Incorporated, priority 2018, published 2023).

System: β-catenin-TCF-mediated reporter transcription activity in Colo 205 cells
Experiment: Colo 205 reporter assay (TCF/LEF luciferase)
Format: cell-based
Settings: Colo 205 TCF/LEF luciferase reporter, five hours after addition of compound; read-out: TCF reporter Colo205 IC50
In short: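 Luciferase signal from a TCF/LEF-driven reporter, stably integrated in Colo 205 colon cancer cells, was measured 5 h after compound addition.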

Row | IC50 [nM] | Compound
1 | 1000 to 5000 | Cc1nc(N[C@H]2C[C@@H](Cn3nccc3C(F)(F)F)C2)nc2c1NC(=O)[C@H](CO)N2C [Compound 743, (S)-7-(hydroxymethyl)-4,8-dimethyl-2-(((1s,3R)-3-((5-(trifluoromethyl)-1H-pyrazol-1-yl)methyl)cyclobutyl)amino)-7,8-dihydropteridin-6(5H)-one]
2 | < 300 | Cc1nc(N[C@H]2C[C@@H](Cc3nc(C(F)(F)F)no3)C2)nc2c1NC(=O)[C@H](C(C)C)N2C [Compound 660, (S)-7-isopropyl-4,8-dimethyl-2-(((1s,3R)-3-((3-(trifluoromethyl)-1,2,4-oxadiazol-5-yl)methyl)cyclobutyl)amino)-7,8-dihydropteridin-6(5H)-one]

Same assay, conditions: Homo sapiens, COLO 205, 5 h, Colo 205 TCF/LEF luciferase reporter, five hours after addition of compound; read-out: TCF reporter Colo205 IC50

Row | Compound | IC50 [nM]
3 | Cc1nc(NCc2cnn(Cc3ccc(F)c(F)c3)c2)nc2c1N(C)C(=O)[C@H](C)N2C [Compound 28, (7S)-2-(((1-(3,4-difluorobenzyl)-1H-pyrazol-4-yl)methyl)amino)-4,5,7,8-tetramethyl-7,8-dihydropteridin-6(5H)-one] | < 300
4 | CC[C@H]1C(=O)Nc2c(C)nc(NCc3cnn(Cc4cnc(F)c(OC)c4)c3)nc2N1C [Compound 394, (7S)-7-Ethyl-2-(((1-((6-fluoro-5-methoxypyridin-3-yl)methyl)-1H-pyrazol-4-yl)methyl)amino)-4,8-dimethyl-7,8-dihydropteridin-6(5H)-one] | < 300
5 | COc1nc(C(F)(F)F)ccc1Cn1cc(CNc2nc(C)c3c(n2)N(C)[C@@H](C)C(=O)N3)cn1 [Compound 218, (7S)-2-(((1-((2-methoxy-6-(trifluoromethyl)pyridin-3-yl)methyl)-1H-pyrazol-4-yl)methyl)amino)-4,7,8-trimethyl-7,8-dihydropteridin-6(5H)-one] | < 300
6 | Cc1nc(NCc2cnn(Cc3ncc(F)cn3)c2)nc2c1NC(=O)[C@H](C)N2C [Compound 162, (7S)-2-(((1-((5-fluoropyrimidin-2-yl)methyl)-1H-pyrazol-4-yl)methyl)amino)-4,7,8-trimethyl-7,8-dihydropteridin-6(5H)-one] | ≥ 5000
7 | CCN1C(=O)C(C)(C)N(CC)c2nc(NCc3cnn(Cc4ccc(F)cc4)c3)ncc21 [Compound 230, 5,8-diethyl-2-(((1-(4-fluorobenzyl)-1H-pyrazol-4-yl)methyl)amino)-7,7-dimethyl-7,8-dihydropteridin-6(5H)-one] | 300 to 1000
8 | Cc1nc(N[C@H]2C[C@@H](COc3cncc(Cl)c3)C2)nc2c1NC(=O)[C@H](C)N2C [Compound 366, (7S)-2-((cis-3-(((5-chloropyridin-3-yl)oxy)methyl)cyclobutyl)amino)-4,7,8-trimethyl-7,8-dihydropteridin-6(5H)-one] | < 300
9 | Cc1nc(NCc2ccnc(N3CCOCC3)c2)nc2c1NC(=O)[C@H](C)N2C [Compound 62, (S)-4,7,8-trimethyl-2-(((2-morpholinopyridin-4-yl)methyl)amino)-7,8-dihydropteridin-6(5H)-one] | ≥ 5000
10 | Cc1nn(Cc2ccc(C(F)(F)F)nc2)c(C)c1CNc1nc(C)c2c(n1)N(C)[C@@H](C)C(=O)N2 [Compound 212, (7S)-2-(((3,5-Dimethyl-1-((6-(trifluoromethyl)pyridin-3-yl)methyl)-1H-pyrazol-4-yl)methyl)amino)-4,7,8-trimethyl-7,8-dihydropteridin-6(5H)-one] | ≥ 5000
11 | Cc1ncc(Cn2cc(CNc3ncc4c(n3)N(C)[C@@H](C)C(=O)N4)cn2)cn1 [Compound 166, (7S)-7,8-dimethyl-2-(((1-((2-methylpyrimidin-5-yl)methyl)-1H-pyrazol-4-yl)methyl)amino)-7,8-dihydropteridin-6(5H)-one] | ≥ 5000
12 | Cc1nc(N[C@H]2C[C@H](OCc3ccc(F)c(F)c3)C2)nc2c1N(C)C(=O)[C@H](C)N2C [Compound 266, (7S)-2-((trans-3-((3,4-difluorobenzyl)oxy)-cyclobutyl)amino)-4,5,7,8-tetramethyl-7,8-dihydropteridin-6(5H)-one] | 300 to 1000
13 | Cc1nc(NCc2cnn(Cc3ccc(C(C)(C)C)nc3)c2)nc2c1NC(=O)[C@H](C)N2C [Compound 211, (7S)-2-(((1-((6-(tert-butyl)pyridin-3-yl)methyl)-1H-pyrazol-4-yl)methyl)amino)-4,7,8-trimethyl-7,8-dihydropteridin-6(5H)-one] | 300 to 1000
14 | Cc1nc(N[C@H]2C[C@H](Oc3ccnc(C(F)(F)F)c3)C2)nc2c1N(C)C(=O)[C@H](C)N2C [Compound 337, (7S)-4,5,7,8-tetramethyl-2-((trans-3-((2-(trifluoromethyl)pyridin-4-yl)oxy)cyclobutyl)amino)-7,8-dihydropteridin-6(5H)-one] | 300 to 1000
15 | Cc1nc(N[C@H]2C[C@@H](COc3ccc(F)c(F)c3F)C2)nc2c1NC(=O)[C@H](C)N2C [Compound 281, (7S)-4,7,8-trimethyl-2-((cis-3-((2,3,4-trifluorophenoxy)methyl)cyclobutyl)-amino)-7,8-dihydropteridin-6(5H)-one] | < 300
16 | CC(=O)c1nc(C(F)(F)F)ccc1Cn1cc(CNc2nc(C)c3c(n2)N(C)[C@@H](C)C(=O)N3)cn1 [Compound 413, (7S)-2-(((1-((2-acetyl-6-(trifluoromethyl)pyridin-3-yl)methyl)-1H-pyrazol-4-yl)methyl)amino)-4,7,8-trimethyl-7,8-dihydropteridin-6(5H)-one] | < 300
17 | CC[C@H]1C(=O)Nc2c(C)nc(NCc3cnn(Cc4ccc(F)nc4)c3)nc2N1C [Compound 389, (7S)-7-Ethyl-2-(((1-((6-fluoropyridin-3-yl)methyl)-1H-pyrazol-4-yl)methyl)amino)-4,8-dimethyl-7,8-dihydropteridin-6(5H)-one] | < 300
18 | CC[C@H]1C(=O)Nc2c(C)nc(NCc3cnn(Cc4ccc(OCC(F)(F)F)nc4)c3)nc2N1C [Compound 433, (7S)-7-ethyl-4,8-dimethyl-2-(((1-((6-(2,2,2-trifluoroethoxy)pyridin-3-yl)methyl)-1H-pyrazol-4-yl)methyl)amino)-7,8-dihydropteridin-6(5H)-one] | < 300
19 | Cc1nc(NCc2cnn(Cc3ccccc3)c2)nc2c1NC(=O)[C@H](C)N2C [Compound 53, (7S)-2-(((1-benzyl-1H-pyrazol-4-yl)methyl)amino)-4,7,8-trimethyl-7,8-dihydropteridin-6(5H)-one] | < 300

Results, then the molecule that gave them:

Row | IC50 [nM] | Compound
20 | ≥ 5000 | Cc1nc(N[C@H]2C[C@H](NS(=O)(=O)c3cc(F)c(F)c(F)c3)C2)nc2c1NC(=O)[C@H](C)N2C [Compound 482, 3,4,5-trifluoro-N-(trans-3-(((S)-4,7,8-trimethyl-6-oxo-5,6,7,8-tetrahydropteridin-2-yl)amino)cyclobutyl)benzenesulfonamide]
21 | < 300 | Cc1nc(N[C@H]2C[C@@H](c3ccc(OC(F)(F)F)cc3)C2)nc2c1NC(=O)[C@H](C)N2C [Compound 507, (7S)-4,7,8-trimethyl-2-(((cis)-3-(4-(trifluoromethoxy)phenyl)cyclo-butyl)amino)-7,8-dihydropteridin-6(5H)-one]
22 | 1000 to 5000 | Cc1nc(N[C@H]2C[C@H](Nc3ccnc(C(F)(F)F)n3)C2)nc2c1NC(=O)[C@H](C(C)C)N2C [Compound 540, (S)-7-isopropyl-4,8-dimethyl-2-((trans-3-((2-(trifluoromethyl)pyrimidin-4-yl)amino)cyclobutyl)amino)-7,8-dihydropteridin-6(5H)-one]
23 | 300 to 1000 | Cc1nc(NCc2cnn(CCCc3ccc(C(F)(F)F)nc3)c2)nc2c1NC(=O)[C@H](C)N2C [Compound 492, (S)-4,7,8-trimethyl-2-(((1-(3-(6-(trifluoromethyl)pyridin-3-yl)propyl)-1H-pyrazol-4-yl)methyl)amino)-7,8-dihydropteridin-6(5H)-one]
24 | < 300 | CO[C@H](C)[C@H]1C(=O)Nc2c(C)nc(NCc3cnn(CC4CC(F)(F)C4)c3)nc2N1C [Compound 728, (S)-2-(((1-((3,3-difluorocyclobutyl)methyl)-1H-pyrazol-4-yl)methyl)amino)-7-((R)-1-methoxyethyl)-4,8-dimethyl-7,8-dihydropteridin-6(5H)-one]
25 | < 300 | Cc1nc(NCc2cnn(Cc3ccc(C(F)(F)F)nc3)c2)nc2c1NC(=O)[C@H](CC(F)(F)F)N2C [Compound 495, (S)-4,8-dimethyl-7-(2,2,2-trifluoroethyl)-2-(((1-((6-(trifluoromethyl)pyridin-3-yl)methyl)-1H-pyrazol-4-yl)methyl)amino)-7,8-dihydropteridin-6(5H)-one]
26 | ≥ 5000 | Cc1nc(NC2CN(C(=O)[C@@H]3CCCO3)C2)nc2c1NC(=O)[C@H](C(C)C)N2C [Compound 642, (S)-7-isopropyl-4,8-dimethyl-2-((1-((S)-tetrahydrofuran-2-carbonyl)azetidin-3-yl)amino)-7,8-dihydropteridin-6(5H)-one]
27 | < 300 | Cc1nc(N[C@H]2C[C@@H](Cn3ccc(Cl)n3)C2)nc2c1NC(=O)[C@H](C(C)C)N2C [Compound 583, (S)-2-((cis-3-((3-chloro-1H-pyrazol-1-yl)methyl)cyclobutyl)amino)-7-isopropyl-4,8-dimethyl-7,8-dihydropteridin-6(5H)-one]
28 | < 300 | COC1(C2C(=O)Nc3c(C)nc(N[C@H]4C[C@H](Oc5cc(F)c(F)c(F)c5)C4)nc3N2C)CCC1 (relative stereo) [Compound 667, 7-(1-methoxycyclobutyl)-4,8-dimethyl-2-((trans-3-(3,4,5-trifluorophenoxy)cyclobutyl)amino)-7,8-dihydropteridin-6(5H)-one]
29 | 300 to 1000 | Cc1nc(NC2CN(C(=O)CC3CC(F)(F)C3)C2)nc2c1NC(=O)[C@H](C(C)C)N2C [Compound 606, (S)-2-((1-(2-(3,3-difluorocyclobutyl)acetyl)azetidin-3-yl)amino)-7-isopropyl-4,8-dimethyl-7,8-dihydropteridin-6(5H)-one]

Same assay, conditions: Homo sapiens, COLO 205, 5 h, R-isomer at C2 (corresponding to C2 S-isomer); Colo 205 TCF/LEF luciferase reporter, 5 h; read-out: TCF reporter Colo205 IC50

Row | IC50 [nM] | Compound
30 | < 300 | CCC[C@@H]1C(=O)N(C)c2cnc(NCc3cnn(Cc4cc(F)c(F)c(F)c4)c3)nc2N1C [Compound I-1348]
